This is an account of results in patent publication US20220000835A1, “METHOD FOR TREATING CANCER WITH A COMBINATION OF QUERCETIN AND A CHEMOTHERAPY AGENT” (Quercis Pharma A.G., priority 2014, published 2022).

Series [1] can be described thus: Stabilization of quercetin by vitamin B3 and/or vitamin C. Particulars: in the presence of one or both of vitamin B3 and vitamin C. The class given is physicochemical.
Series [2] has as its system metastatic bladder cancer. In words: Patient with tumor from metastatic bladder cancer, PET scan and patient report. The class given is in vivo, human. Conditions: patient bearing a tumor from metastatic bladder cancer. On the procedure:
In a particular example, a patient bearing a tumor resulting from metastatic bladder cancer failed monotherapy with cisplatin. Subsequently, the patient was treated daily with 100 mg cyclophosphamide together with a composition containing 2 g of quercetin. […] Of note, this patient typically would not have been treated further after failing the monotherapy with cisplatin.

The structures appear in SMILES notation.

Take `O=c1c(O)c(-c2ccc(O)c(O)c2)oc2cc(O)cc(O)c12` [quercetin]: in series [1], the stability of quercetin entry is on record as “stabilized”.
As for `N.N.[Cl][Pt][Cl]` [cisplatin], the outcome of monotherapy in series [2] is given as “failed”.
